Some test systems named below: KM12 colon; OVCAR-5 ovarian; SF-295 CNS; SN12C renal; SNB-19 CNS; U251 CNS; CCRF-CEM leukemia; DU-145 prostate; MDA-MB-435; PC-3 prostate.
Common to all, as to experiment: growth of human tumour cells (NCI), 48 h

Molecules are shown by their SMILES.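 Each compound was tested at five concentrations against cells in 96-well plates for 48 hours. GI50 marks 50% less growth. TGI marks complete inhibition of growth.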

As to `N.N.N.N.N.N#N.[Cl-].[Os+7]`, the GI50 in the assay with KM12 colon, in the assay with OVCAR-5 ovarian, in the assay on SF-295 CNS, in the assay on SN12C renal, in the assay with SNB-19 CNS and in the assay with U251 CNS was above 100 µM in each case. In addition, the TGI in the assay on KM12 colon, in the assay with OVCAR-5 ovarian, with SF-295 CNS, with SN12C renal, in the assay on SNB-19 CNS and in the assay on U251 CNS was above 100 µM in each case.
Take `CCCCNC(=O)OCC(COc1ccccc1OC)OC(=O)NCCCC` (stereo not drawn): the TGI with CCRF-CEM leukemia, with KM12 colon, with SF-295 CNS, in the assay on SN12C renal, with SNB-19 CNS and in the assay with U251 CNS was above 100 µM throughout.
Regarding `COc1ccc(OC)c(/C=C/C(=O)C(C)(C)C)c1`, the TGI worked out at 44.5 µM in the assay on CCRF-CEM leukemia; 52.9 µM in the assay with KM12 colon; 67.4 µM in the assay on SF-295 CNS; 45.4 µM with SN12C renal; 32.4 µM with SNB-19 CNS; 43.1 µM with U251 CNS.
On to `CCc1nc(-n2c(CC)nc3ccccc3c2=O)nc(N)c1-c1ccc(Cl)cc1`, for which the GI50 is above 76.5 µM with DU-145 prostate; 38.5 µM in the assay with KM12 colon; 7.12 µM in the assay on MDA-MB-435; 30.9 µM in the assay on OVCAR-5 ovarian; 5.74 µM in the assay with PC-3 prostate; 12.6 µM in the assay with SF-295 CNS. Further, the values for the GI50 in the assay on SN12C renal, in the assay with SNB-19 CNS and in the assay on U251 CNS were above 46.1 µM, above 81.1 µM and above 100 µM, respectively. The TGI in the assay with DU-145 prostate, in the assay on KM12 colon, with MDA-MB-435, in the assay on OVCAR-5 ovarian, in the assay with PC-3 prostate and in the assay on SF-295 CNS was above 100 µM each time. The TGI in the assay on SN12C renal, in the assay on SNB-19 CNS and with U251 CNS was above 100 µM in each case.
Consider `O=c1c2cc(Br)ccc2nc(-c2ccccc2)n1NCC1(O)OCC(O)C(O)C1O` (stereo not drawn), for which the TGI with CCRF-CEM leukemia, in the assay on KM12 colon, with OVCAR-5 ovarian, in the assay with SF-295 CNS, in the assay with SN12C renal and in the assay on SNB-19 CNS was above 100 µM throughout. This compound returned a TGI with U251 CNS above 100 µM.
Take `CCC(C(=O)c1cccs1)C(O)(C(F)(F)F)C(F)(F)F` (stereo not drawn): the TGI in the assay on DU-145 prostate, with KM12 colon, in the assay with MDA-MB-435, with OVCAR-5 ovarian, in the assay with PC-3 prostate and with SF-295 CNS was above 100 µM each time. Moreover, the TGI with SN12C renal, in the assay on SNB-19 CNS and in the assay with U251 CNS was above 100 µM in each case.
As to `CSc1c(S(C)=O)[nH]c2cc(Br)cc(Br)c12` (stereo not drawn), the TGI in the assay with CCRF-CEM leukemia is 58.5 µM; in the assay on KM12 colon, 62.6 µM; in the assay with SF-295 CNS, 45.2 µM; with SN12C renal, 33.9 µM.
`Cc1cc2c(=O)cc(-c3ccc(C(F)(F)F)cc3)oc2c(C(=O)O)c1C`: the TGI with CCRF-CEM leukemia, with KM12 colon, with OVCAR-5 ovarian, in the assay with SF-295 CNS, in the assay with SN12C renal and in the assay on SNB-19 CNS was above 100 µM in each case. This compound registered a TGI in the assay with U251 CNS above 100 µM.
`CC(C)[C@H]1CO[C@@H]2O[C@H](C)CC(=O)N21`: the TGI in the assay on CCRF-CEM leukemia, with KM12 colon, with SF-295 CNS, in the assay with SN12C renal, with SNB-19 CNS and with U251 CNS was above 100 µM each time.
For the compound `C=CC1(c2ccccc2Cl)N/C(=C/OCC)CO1` (stereo not drawn), the TGI with CCRF-CEM leukemia, with KM12 colon, in the assay on OVCAR-5 ovarian, in the assay with SF-295 CNS, in the assay on SN12C renal and in the assay on SNB-19 CNS was above 100 µM throughout. In addition, the TGI with U251 CNS is above 100 µM.
On to `CCN1CCC2(CC1)NC(=O)c1c(c3ccc(Cl)c(Cl)c3n1C)C2C#N` (stereo not drawn), for which the GI50 was 3 µM with CCRF-CEM leukemia; 1.93 µM in the assay with MDA-MB-435; 1.98 µM in the assay with OVCAR-5 ovarian; above 100 µM in the assay on PC-3 prostate; 1.79 µM with SF-295 CNS; 4.1 µM with SN12C renal. In addition, the figures for the GI50 in the assay on SNB-19 CNS and in the assay on U251 CNS were 7.1 µM and 2.83 µM, respectively. Also, the TGI is 13.1 µM in the assay on CCRF-CEM leukemia; 3.77 µM with MDA-MB-435; 5.79 µM in the assay with OVCAR-5 ovarian; above 100 µM in the assay with PC-3 prostate; 4.35 µM in the assay with SF-295 CNS; 16.3 µM in the assay on SN12C renal. Moreover, the figures for the TGI with SNB-19 CNS and in the assay with U251 CNS were 24.5 µM and 12 µM, respectively.
Consider `COc1ccc2c(c1)CC[C@@H]1[C@@H]2CC[C@]2(C)c3[nH]ncc3C[C@@H]12`, for which the GI50 was 20.6 µM in the assay with DU-145 prostate; 10.1 µM with KM12 colon; 14.7 µM in the assay with MDA-MB-435; 20.2 µM with OVCAR-5 ovarian; 18.2 µM with PC-3 prostate; 12.6 µM with SF-295 CNS. Also, the values for the GI50 in the assay on SN12C renal, in the assay on SNB-19 CNS and with U251 CNS were 18 µM, 21.4 µM and 18.2 µM, respectively. Besides, the TGI with DU-145 prostate was above 50 µM; in the assay with KM12 colon it was 21.6 µM; in the assay with MDA-MB-435, 44.5 µM; in the assay on OVCAR-5 ovarian it was above 50 µM; with PC-3 prostate, above 50 µM; with SF-295 CNS, 27.5 µM. For the same compound, the TGI in the assay on SN12C renal, in the assay on SNB-19 CNS and in the assay with U251 CNS was above 50 µM in each case.
As for `NC(=S)N/N=C1\C(=O)N(CCc2ccccc2)C(=O)C1C(=O)NCCc1ccccc1` (stereo not drawn), the TGI with KM12 colon, with OVCAR-5 ovarian, in the assay on SF-295 CNS, with SN12C renal, in the assay on SNB-19 CNS and in the assay on U251 CNS was above 100 µM each time.
In the case of `Cc1ccc(/C=N/NS(=O)(=O)c2ccccc2)cc1`, the TGI in the assay on CCRF-CEM leukemia, in the assay on KM12 colon, in the assay on OVCAR-5 ovarian, with SF-295 CNS, in the assay on SN12C renal and with U251 CNS was above 100 µM each time.

For the origin of these results see PubChem BioAssay (NCI).
